Target: Human CYP2D6 + P450 Reductase SUPERSOMES (Homo sapiens, UniProt P10635)
Settings: 0.1 µM, 2D6 Supersomes
Description: Plates were then spun in the centrifuge for 10 minutes at 3000 rpm.

Chain of Human CYP2D6 + P450 Reductase SUPERSOMES (P10635 whole entry): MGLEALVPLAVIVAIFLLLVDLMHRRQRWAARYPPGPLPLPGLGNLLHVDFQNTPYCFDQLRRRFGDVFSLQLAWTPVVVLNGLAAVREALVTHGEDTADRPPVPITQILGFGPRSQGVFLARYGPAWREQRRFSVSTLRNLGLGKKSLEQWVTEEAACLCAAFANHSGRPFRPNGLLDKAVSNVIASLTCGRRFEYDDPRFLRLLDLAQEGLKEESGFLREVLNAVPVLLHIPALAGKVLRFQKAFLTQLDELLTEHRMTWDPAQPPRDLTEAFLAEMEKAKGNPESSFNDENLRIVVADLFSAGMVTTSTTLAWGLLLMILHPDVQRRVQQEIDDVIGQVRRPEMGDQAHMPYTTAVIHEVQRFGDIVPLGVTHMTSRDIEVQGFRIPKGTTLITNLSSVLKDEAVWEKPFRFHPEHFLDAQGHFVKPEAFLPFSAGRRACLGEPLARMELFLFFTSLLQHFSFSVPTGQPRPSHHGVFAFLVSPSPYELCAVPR

## COc1ccc2c(c1)[C@]13CCCC[C@@H]1[C@H](C2)N(C)CC3 [dextromethorphan, (+)-3-methoxy-17-methyl-(9α,13α,14α)-morphinan]
  intact compound at the 20 minute time point: no intact dextromethorphan could be detected

Reference: EP3632916B1, “MORPHINAN COMPOUNDS” (Concert Pharmaceuticals Inc., priority 2007, dated 2008)
